Laboratory results reported in publication PMC7658267, “Effects of CYP46A1 Inhibition on Long-Term-Depression in Hippocampal Slices ex vivo and 24S-Hydroxycholesterol Levels in Mice in vivo” (Frontiers in Molecular Neuroscience, 2020).
pIC50: −log10 of the molar value. Where two headings read alike, the source gives them in different places.

Assays:
CYP46A1 [1] = molecular target: T1, CYP46A1 (Homo sapiens, UniProt Q9Y6A2); test: recombinant human CYP46A1 microsomes, cholesterol to 24-hydroxycholesterol, LC-MS/MS ([…] with testosterone as substrate); type: biochemical
T1 sequence (Q9Y6A2 whole entry): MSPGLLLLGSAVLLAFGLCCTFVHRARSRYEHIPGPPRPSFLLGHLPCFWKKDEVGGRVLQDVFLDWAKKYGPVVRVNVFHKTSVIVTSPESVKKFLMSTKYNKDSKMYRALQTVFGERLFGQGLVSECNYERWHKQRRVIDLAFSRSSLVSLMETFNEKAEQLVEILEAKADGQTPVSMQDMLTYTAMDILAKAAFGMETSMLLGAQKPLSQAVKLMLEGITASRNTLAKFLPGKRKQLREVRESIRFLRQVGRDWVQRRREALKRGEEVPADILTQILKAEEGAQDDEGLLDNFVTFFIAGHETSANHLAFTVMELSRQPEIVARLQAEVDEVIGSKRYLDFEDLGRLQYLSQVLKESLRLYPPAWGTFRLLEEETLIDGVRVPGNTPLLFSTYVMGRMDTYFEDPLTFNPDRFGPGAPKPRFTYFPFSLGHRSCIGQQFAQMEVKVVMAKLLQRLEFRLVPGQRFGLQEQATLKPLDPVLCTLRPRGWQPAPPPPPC

Human M2 = molecular target: T2, Human M2 (Homo sapiens, UniProt P08172); test: biochemical; design: CEREP off-target binding panel, per cent inhibition at 10 uM, n = 2
T2 construct: gene CHRM2
T2 sequence (P08172 whole entry): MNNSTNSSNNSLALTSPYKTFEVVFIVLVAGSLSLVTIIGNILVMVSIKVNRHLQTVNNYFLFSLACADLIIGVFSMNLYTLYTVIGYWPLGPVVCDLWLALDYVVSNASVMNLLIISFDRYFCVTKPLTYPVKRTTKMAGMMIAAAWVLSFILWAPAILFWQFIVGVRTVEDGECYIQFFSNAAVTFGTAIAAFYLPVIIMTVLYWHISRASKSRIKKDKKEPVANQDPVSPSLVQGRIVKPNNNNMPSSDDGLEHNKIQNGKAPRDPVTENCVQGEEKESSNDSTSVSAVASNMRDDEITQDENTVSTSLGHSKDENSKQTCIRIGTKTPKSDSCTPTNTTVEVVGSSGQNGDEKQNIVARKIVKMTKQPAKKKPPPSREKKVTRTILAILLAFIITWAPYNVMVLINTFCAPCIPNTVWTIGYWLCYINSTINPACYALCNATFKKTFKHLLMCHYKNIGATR

Human β1 = molecular target: T3, Human β1 (Homo sapiens, UniProt P08588); test: biochemical; design: CEREP off-target binding panel, per cent inhibition at 10 uM, n = 2
T3 construct: gene ADRB1
T3 sequence (P08588 whole entry): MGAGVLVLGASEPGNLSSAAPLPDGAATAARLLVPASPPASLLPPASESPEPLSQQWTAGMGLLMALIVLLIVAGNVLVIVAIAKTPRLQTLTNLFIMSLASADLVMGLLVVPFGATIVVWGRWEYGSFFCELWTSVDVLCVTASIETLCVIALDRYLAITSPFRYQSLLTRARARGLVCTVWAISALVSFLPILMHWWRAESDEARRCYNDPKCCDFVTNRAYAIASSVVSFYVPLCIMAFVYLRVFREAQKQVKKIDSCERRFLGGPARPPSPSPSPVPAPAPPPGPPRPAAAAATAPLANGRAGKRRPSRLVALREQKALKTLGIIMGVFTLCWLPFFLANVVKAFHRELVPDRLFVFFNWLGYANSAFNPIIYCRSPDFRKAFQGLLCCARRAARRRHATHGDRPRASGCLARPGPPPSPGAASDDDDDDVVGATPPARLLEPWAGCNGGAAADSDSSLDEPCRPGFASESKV

Human 5-HT2A = molecular target: T4, Human 5-HT2A (Homo sapiens, UniProt P28223); test: biochemical; design: CEREP off-target binding panel, per cent inhibition at 10 uM, n = 2
T4 construct: gene HTR2A
T4 sequence (P28223 whole entry): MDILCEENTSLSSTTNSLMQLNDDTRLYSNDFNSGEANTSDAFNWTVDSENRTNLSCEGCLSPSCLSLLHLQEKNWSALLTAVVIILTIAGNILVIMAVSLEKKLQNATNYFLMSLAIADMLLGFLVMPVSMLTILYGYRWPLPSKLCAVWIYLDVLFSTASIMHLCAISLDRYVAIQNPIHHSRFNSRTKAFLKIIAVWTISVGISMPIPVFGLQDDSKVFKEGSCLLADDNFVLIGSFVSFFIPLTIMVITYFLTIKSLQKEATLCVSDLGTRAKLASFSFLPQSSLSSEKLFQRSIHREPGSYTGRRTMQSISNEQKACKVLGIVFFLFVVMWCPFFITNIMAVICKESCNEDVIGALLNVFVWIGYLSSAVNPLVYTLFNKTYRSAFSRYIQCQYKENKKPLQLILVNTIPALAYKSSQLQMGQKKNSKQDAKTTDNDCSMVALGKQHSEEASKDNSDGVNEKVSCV

CYP46A1 [2] = molecular target: T1, CYP46A1; test: recombinant human CYP46A1 microsomes, cholesterol to 24-hydroxycholesterol, LC-MS/MS ([…] with testosterone as substrate); type: biochemical; remark: listed apart in the source

O=C(c1cccnc1-c1ccncn1)N1CCC(O)(Cc2ccc(F)cc2)CC1 [compound 2, (4-(4-fluorobenzyl)-4-hydroxypiperidin-1-yl)(2-(pyrimidin-4-yl)pyridin-3-yl)methanone]
pIC50 (CYP46A1 [1]): 7.49
inhibition at 10 µM (Human M2): 12.3%
inhibition at 10 µM (Human β1): -0.7%
inhibition at 10 µM (Human 5-HT2A): -5%

O=C(c1cnc2c(-c3cnco3)cc(C(F)(F)F)cn12)N1C2CCC1COC2 [compound 1, (3-oxa-8-azabicyclo[3.2.1]octan-8-yl)(8-(oxazol-5-yl)-6-(trifluoromethyl)imidazo[1,2-a]pyridin-3-yl)methanone]
pIC50 (CYP46A1 [2]): 7.66
